Experimental data reported in PubChem BioAssay (NCI).
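Following 48 hours of exposure in 96-well plates, responses at five concentrations were used to interpolate endpoints linearly. At the TGI there is no net growth.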

Legend:
Assay in all cases: NCI tumour cell line growth inhibition, 48 h
[1] = test system: HOP-62 NSCLC
[2] = test system: HS 578T breast
[3] = test system: KM12 colon
[4] = test system: NCI-H226 lung
[5] = test system: OVCAR-3 ovarian
[6] = test system: PC-3 prostate
[7] = test system: SK-MEL-2 melanoma
[8] = test system: SK-OV-3 ovarian
[9] = test system: SN12C renal
[10] = test system: SNB-19 CNS

| Compound | TGI [1] | TGI [2] | TGI [3] | TGI [4] | TGI [5] | TGI [6] | TGI [7] | TGI [8] | TGI [9] | TGI [10] |
| --- | --- | --- | --- | --- | --- | --- | --- | --- | --- | --- |
| CC1=NN(C(=O)CC(=O)Nc2cccc(C)c2)C(=O)C1N=Nc1ccc(S(=O)(=O)CCOS(=O)(=O)O)cc1 (stereo not given) | 25.9 µM | 15.3 µM | 13.9 µM | 6.79 µM | 14.9 µM | 11.2 µM | 2.67 µM | 17 µM | 5.51 µM | 22.3 µM |
| CC(O)c1nc(C#N)c(N)o1 (stereo not given) | > 100 µM | > 100 µM | > 100 µM | > 100 µM | > 100 µM | > 100 µM | > 100 µM | > 100 µM | > 100 µM | > 100 µM |
| O=C(O)C(Cc1ccccc1)NCc1c(O)ccc2c(-c3ccccc3)cc(=O)oc12 (stereo not given) | > 100 µM | > 100 µM | > 100 µM | > 100 µM | > 100 µM | > 100 µM | > 100 µM | > 100 µM | > 100 µM | > 100 µM |
| O=C(CNc1ccccc1C(=O)O)Nn1cnc2ccc(S(=O)(=O)Nc3ccccc3C(=O)O)cc2c1=O | > 100 µM | > 100 µM | > 100 µM | > 100 µM | > 100 µM | > 100 µM | > 100 µM | > 100 µM | > 100 µM | > 100 µM |
| C=C1c2nc3ccccc3n2C=C(c2ccc(C)cc2)N1c1ccc(OC)cc1 | > 100 µM | > 100 µM | 63.3 µM | > 100 µM | > 100 µM | > 100 µM | > 100 µM | > 100 µM | > 100 µM | > 100 µM |
| C[C@H]1S[C@@H](c2ccc(Cl)cc2Cl)N(NC(=O)c2ccncc2)C1=O | > 100 µM | > 100 µM | > 100 µM | > 100 µM | > 100 µM | > 100 µM | > 100 µM | > 100 µM | > 100 µM | > 100 µM |
| NC(=O)[C@H](Cc1ccc(O)cc1)Nc1c(O)c2c(c(O)c1Cl)C(=O)C=CC2=O | > 10 µM | > 9.16 µM | > 6.81 µM | > 10 µM | > 5.74 µM | 5.85 µM | > 10 µM | > 10 µM | > 6.94 µM | > 10 µM |
| Clc1ccc2c(NCCCCCCNc3ccnc4cc(Cl)ccc34)ccnc2c1 | 13.8 µM | > 48.8 µM | 7.88 µM | 25.3 µM | 3.77 µM | 18.1 µM | 12.7 µM | 17.5 µM | 16.6 µM | 13.5 µM |
| CC(=O)NC1C(OCc2ccccc2)OC(CO)C(O)C1OC(C)C(=O)N[C@@H](C)C(=O)N[C@H](CCC(=O)NCCNCCNc1c2ccccc2nc2cccc([N+](=O)[O-])c12)C(N)=O (stereo not given in full) | 5.17 µM | 5.13 µM | 0.352 µM | 0.716 µM | 4.44 µM | 0.891 µM | 0.138 µM | 2.05 µM | 0.99 µM | 1.86 µM |
| CC(C)(CO[C@H]1C[C@H]2CC[C@@]1(C)C2(C)C)[N+](=O)[O-] | 38.4 µM | 55.9 µM | 32.4 µM | 36.1 µM | 56.5 µM | 54.4 µM | 31.3 µM | > 100 µM | > 100 µM | 37.2 µM |
| O=C1Nc2ccccc2/C1=C\c1c(Cl)n(-c2ccccc2)c2ccccc12 | 20.6 µM | 5.71 µM | 14 µM | 12.2 µM | 4.86 µM | 60.3 µM | 36.3 µM | 24 µM | 14.6 µM | 13.3 µM |
| COC1(CC[C@@H](C)COC2OC(CO)C(O)C(O)C2O)OC2C[C@H]3[C@@H]4CC[C@H]5C[C@@H](OC6OC(CO)C(OC7OC(CO)C(O)C(O)C7O)C(O)C6OC6OC(C)C(O)C(O)C6O)[C@H](O)C[C@]5(C)[C@H]4CC[C@]3(C)C2[C@@H]1C (stereo not given in full) | 3.69 µM | 7.25 µM | 5.02 µM | 4.52 µM | 3.3 µM | 3.45 µM | 3.9 µM | 3.28 µM | 3.42 µM | 3.55 µM |
| COc1nc(Cl)nc(N[C@H](C)c2c3ccccc3cc3ccccc23)n1 | 31.5 µM | 21.9 µM | 26.9 µM | 31.6 µM | 23.5 µM | 31.5 µM | 31.6 µM | 29.3 µM | 17.8 µM | 31.1 µM |
| Cc1cn(CCCCCCOC(=O)NC(CCCNC(N)=O)C(=O)O)c(=O)[nH]c1=O (stereo not given) | > 100 µM | > 100 µM | > 100 µM | > 100 µM | > 100 µM | > 100 µM | > 100 µM | > 100 µM | > 100 µM | > 100 µM |
| O=S(=O)(Nc1nc2ccccc2nc1N1CCCCCC1)c1ccccc1 | 84.5 µM | 83.9 µM | 52 µM | > 100 µM | 36.5 µM | 77.4 µM | 33.4 µM | 89.6 µM | > 100 µM | > 100 µM |
| Cc1nc(NC(C)(CO)CO)nc(N/N=C/c2ccc(Cl)cc2)c1C(=O)Nc1ccc(Cl)cc1 | > 100 µM | > 100 µM | > 100 µM | > 100 µM | > 100 µM | > 100 µM | > 100 µM | > 100 µM | > 100 µM | > 100 µM |
| CN(CCCCCl)P(=O)(OCc1ccc([N+](=O)[O-])o1)OCC1OC(n2ccc(N)nc2=O)C(O)C1O (stereo not given) | 66.8 µM | 6.46 µM | 34.6 µM | > 100 µM | 17.2 µM | 43 µM | 53.1 µM | 38.3 µM | 33.7 µM | 43.7 µM |

| Compound | TGI [1] | TGI [2] | TGI [3] | TGI [4] | TGI [5] | TGI [6] | TGI [7] | TGI [8] | TGI [9] | TGI [10] |
| --- | --- | --- | --- | --- | --- | --- | --- | --- | --- | --- |
| COc1cc(CCNC2=CC(=O)c3nc[nH]c3C2=O)ccc1O | > 100 µM | 72.8 µM | 82.2 µM | 86.8 µM | 30.5 µM | > 100 µM | 52.1 µM | 90.2 µM | > 100 µM | 33.3 µM |
| O=CCCCCCOCc1ccccc1 | 79.9 µM | > 100 µM | > 100 µM | > 100 µM | > 100 µM | > 100 µM | > 100 µM | > 100 µM | 32.6 µM | > 100 µM |
| COC(=O)c1sc(=O)sc1SCc1cccc(CSc2sc(=O)sc2C(=O)OC)c1 | 35.7 µM | > 100 µM | > 100 µM | > 100 µM | > 100 µM | > 100 µM | > 100 µM | 51.4 µM | > 100 µM | 61.6 µM |
| CN1CCN(C(=O)c2cn(Cc3cncn3Cc3ccc4c(c3)OCO4)cc2-c2cccc3ccccc23)CC1 | > 100 µM | > 100 µM | > 58.3 µM | > 100 µM | > 91.3 µM | > 86.3 µM | 20.8 µM | > 100 µM | > 100 µM | > 100 µM |
| Oc1ccc(C(O)C2CCCCN2)cc1O (stereo not given) | > 100 µM | > 100 µM | > 100 µM | > 100 µM | > 100 µM | > 100 µM | > 100 µM | > 100 µM | > 100 µM | > 100 µM |
| C[n+]1cccc2ccc3cccnc3c21 | 75 µM | 64.3 µM | 96.6 µM | 70 µM | > 100 µM | > 100 µM | 97.1 µM | > 100 µM | > 100 µM | > 100 µM |
| COc1cc2c(/C=C3/C(=O)Nc4ccccc43)c(Cl)n(Cc3ccc(Cl)cc3)c2cc1C | 0.821 µM | 9.01 µM | 1.02 µM | 1.79 µM | 0.432 µM | 16.5 µM | 17.3 µM | 2.85 µM | 1.06 µM | 15.8 µM |
| Cn1/c(=N\N=C2\C=C3CCCCC3(C)CC2)sc2ccccc21 (stereo not given) | > 100 µM | > 100 µM | > 100 µM | > 100 µM | > 100 µM | > 100 µM | > 100 µM | > 100 µM | > 100 µM | > 100 µM |
| ClC1=NN=C(c2c[nH]c3ccccc23)CC1NCc1ccccc1 (stereo not given) | > 100 µM | > 100 µM | > 100 µM | > 100 µM | > 100 µM | > 100 µM | > 100 µM | > 100 µM | > 100 µM | > 100 µM |
| CC(Nc1ccc(Cl)cc1)c1ccncc1 (stereo not given) | > 100 µM | > 100 µM | > 100 µM | > 100 µM | > 100 µM | > 100 µM | > 100 µM | 11.8 µM | > 100 µM | > 100 µM |
| COC(=N)C1(C#N)NC(c2ccsc2)C(C#N)(C#N)NC1c1ccsc1 (stereo not given) | > 100 µM | > 100 µM | > 100 µM | > 100 µM | > 100 µM | > 100 µM | > 100 µM | > 100 µM | > 100 µM | > 100 µM |
| CCOC(=O)c1c(-c2ccc(OC)cc2)ccn1C | > 10 µM | > 10 µM | > 10 µM | > 10 µM | > 10 µM | > 9.68 µM | > 10 µM | > 10 µM | > 10 µM | > 10 µM |
| Clc1ccc2c(c1)N(CCCN1CCCC13CCCCC3)c1ccccc1S2 | 33.4 µM | 34.2 µM | 27.7 µM | > 86.5 µM | 34.4 µM | 20.6 µM | 22.1 µM | 57.7 µM | 26.8 µM | 34.3 µM |
| Cn1c(=O)c2c(nc3[nH]c(=O)c(Br)cn32)n(C)c1=O | > 100 µM | > 100 µM | > 100 µM | > 100 µM | > 100 µM | > 100 µM | > 100 µM | > 100 µM | > 100 µM | > 100 µM |
| O=c1c2cc(Br)cc(Br)c2[nH]c(=S)n1-c1ccc(N=Nc2ccc(O)c3cccnc23)cc1 | > 100 µM | > 100 µM | > 100 µM | > 100 µM | 28.5 µM | > 100 µM | > 100 µM | > 100 µM | > 100 µM | 61.2 µM |
| C=C1CCC[C@@H](C)C(O)[C@@H]2OC(=O)C(=C)[C@@H]2C[C@@H](OC(C)=O)[C@@]2(C)CC[C@@H]1O2 (stereo not given in full) | 18.7 µM | 29.4 µM | 14.6 µM | 16 µM | 11.5 µM | 16.2 µM | 15.8 µM | 40.8 µM | 16 µM | > 50 µM |
